Laboratory results: ChEMBL document CHEMBL1139511, “AFMoC enhances predictivity of 3D QSAR: a case study with DOXP-reductoisomerase” (J Med Chem, 2005)

Target: T1, 1-deoxy-D-xylulose 5-phosphate reductoisomerase (Escherichia coli K-12, UniProt P45568)
T1 sequence (P45568 whole entry): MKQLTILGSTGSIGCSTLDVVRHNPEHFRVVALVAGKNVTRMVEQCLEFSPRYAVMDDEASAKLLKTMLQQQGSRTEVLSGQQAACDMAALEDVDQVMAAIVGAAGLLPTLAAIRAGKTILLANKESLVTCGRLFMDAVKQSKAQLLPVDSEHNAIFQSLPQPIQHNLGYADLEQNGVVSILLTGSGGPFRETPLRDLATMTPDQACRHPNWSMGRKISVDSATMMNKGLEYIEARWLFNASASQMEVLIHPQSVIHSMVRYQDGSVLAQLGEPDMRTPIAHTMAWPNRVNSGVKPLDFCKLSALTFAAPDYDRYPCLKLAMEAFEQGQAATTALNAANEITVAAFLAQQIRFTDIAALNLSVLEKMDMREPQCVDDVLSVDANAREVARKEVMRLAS
Test: Inhibitory concentration against DOXP reductoisomerase

Row | SMILES | IC50
1 | CC(C)C(CCN(O)C=O)P(=O)(O)O (stereo unspecified) | 6.61 µM
2 | O=C(C(Cl)Cl)N(O)CCCP(=O)(O)O | 0.178 µM
3 | CC(=O)N(O)C1CCC(P(=O)(O)O)C1 (stereo unspecified) | 2.34 µM
4 | NCCC(=O)N(O)CCCP(=O)(O)O | 15.8 µM
5 | CC(=O)N(O)C/C=C/P(=O)(O)O | 0.0646 µM
6 | O=C(C1CC1)N(O)CCCP(=O)(O)O | 36.3 µM
7 | CC(=O)N(O)CCC(C)P(=O)(O)O (stereo unspecified) | 0.0537 µM
8 | CCCC(CCN(O)C=O)P(=O)(O)O (stereo unspecified) | 8.13 µM
9 | O=C(CNCP(=O)(O)O)NO | 16.2 µM
10 | CCC(CCN(O)C=O)P(=O)(O)O (stereo unspecified) | 1.78 µM
11 | O=CN(O)CC(Cc1ccccc1)CP(=O)(O)O (stereo unspecified) | 6.46 µM
12 | O=C(c1ccccc1O)N(O)C1CCC(P(=O)(O)O)C1 (stereo unspecified) | 50.1 µM
13 | CCC(CCN(O)C(C)=O)P(=O)(O)O (stereo unspecified) | 0.708 µM
14 | O=C(CN(Cc1ccccc1)CP(=O)(O)O)NO | 1.82 µM
15 | CC(=O)N(O)CC(C)CP(=O)(O)O (stereo unspecified) | 0.646 µM
16 | CC(=O)N(O)CCCP(=O)(O)O [FR-900098] | 0.0282 µM
17 | O=C(CCCP(=O)(O)O)NO | 0.257 µM
18 | CS(=O)(=O)N(O)CCCP(=O)(O)O | 38 µM
19 | CN(CC(=O)NO)CP(=O)(O)O | 31.6 µM
20 | NC(CCP(=O)(O)O)C(=O)NO (stereo unspecified) | 9.77 µM

Other lines, results leading:

Row | IC50 | SMILES
21 | 0.1 µM | O=C(c1ccccc1)N(O)CCCP(=O)(O)O
22 | 14.1 µM | O=C(N(O)CCCP(=O)(O)O)C(F)(F)F
23 | 0.229 µM | O=C(c1cccc2ccccc12)N(O)CCCP(=O)(O)O
24 | 20 µM | CCC(C(=O)NCC(=O)N(O)CCCP(=O)(O)O)c1ccccc1 (stereo unspecified)
25 | 14.1 µM | COc1ccc(CC(=O)NCC(=O)N(O)CCCP(=O)(O)O)cc1OC
26 | 100 µM | COC(=O)c1ccccc1C(=O)N(O)CCCP(=O)(O)O
27 | 1.82 µM | O=C(c1ccccc1O)N(O)CCCP(=O)(O)O
28 | 6.61 µM | CCCC(CCN(O)C(C)=O)P(=O)(O)O (stereo unspecified)
29 | 17 µM | O=C(CCCc1c[nH]c2ccccc12)NCC(=O)N(O)CCCP(=O)(O)O
30 | 50.1 µM | O=C(CCc1ccccc1)N(O)CCCP(=O)(O)O
31 | 24 µM | CC(C)CC(=O)N(O)CCCP(=O)(O)O
32 | 25.7 µM | NCCCC(=O)N(O)CCCP(=O)(O)O
33 | 40.7 µM | NCCCCCC(=O)N(O)CCCP(=O)(O)O
34 | 1 µM | O=C(CCCOc1ccccc1)NCC(=O)N(O)CCCP(=O)(O)O
35 | 50.1 µM | CC(O)CC(=O)N(O)CCCP(=O)(O)O (stereo unspecified)
36 | 5.13 µM | O=C(NCC(=O)N(O)CCCP(=O)(O)O)c1ccc(OC(F)(F)F)cc1
37 | 2.4 µM | O=C(c1ccc(-c2ccccc2)cc1)N(O)CCCP(=O)(O)O
38 | 1.7 µM | CCCCCCCC(=O)N(O)CCCP(=O)(O)O
39 | 11 µM | CC(C)(C)C(=O)N(O)CCCP(=O)(O)O
40 | 7.08 µM | O=C(NCC(=O)N(O)CCCP(=O)(O)O)C1CC1
41 | 15.8 µM | CCOC(=O)C(=O)N(O)C1CCC(P(=O)(O)O)C1 (stereo unspecified)
